# Results: publication PMC10988555, “Exploiting Co(III)-Cyclopentadienyl Complexes To Develop Anticancer Agents” (Inorganic Chemistry, 2024)
# Columns and labels:
# A2780 cells = experiment: Cellular viability after 12 h at 37 °C versus 4 °C; format: cell-based, human; conditions: A2780, 12 h, 20× IC50
# plasmidic DNA (pUC18) = experiment: Interaction with pDNA and cleavage mechanism (agarose gel electrophoresis); format: biochemical; conditions: 25 μM complex with NaN3, catalase or D2O, 24 h
# Procedure: E. coli transformed with pUC18 was inoculated onto a plate of LB-agar medium (Luria–Bertani) (Applichem, Darmstadt, Germany) supplemented with ampicillin (100 μg/mL) (Bioline, London, UK) and incubated for 24 h at 37 °C. Then, the E. coli cells were inoculated in liquid LB medium, supplemented with ampicillin (100 μg/mL) for 24 h at 37 °C. After incubation, the plasmid DNA (pDNA) was extracted by using the Kit NZYSpeedy Miniprep, following the instructions provided by the manufacturer.
# The extracted pDNA (100 ng) was incubated with 5, 25, 50, and 100 μM concentrations of complexes 2–4, with DMSO 0.1% or only pUC18. The solutions were prepared in 5 mM Tris–HCl, 50 mM NaCl, pH 7.02, buffer, and incubated for 24 h at 37 °C. A control of pDNA cleaved with Hind III endonuclease was also used. Electrophoresis was performed in 0.8% (w/v) agarose gel (NZYtech) in TAE buffer at 70 V constant voltage for 1 h. Electrophoresis gel image was acquired in the Gel Doc EZ Imager (Bio-Rad).
# The pDNA (100 ng) was incubated with 25 μM of complexes 2–4, in the absence or presence of 50 μM of NaN3, 4 units of catalase from the bovine liver (2000–5000 U/mg, Sigma-Aldrich, Spain), and 25 mM of D2O. The solutions were prepared in 5 mM Tris–HCl, 50 mM NaCl, pH 7.02, buffer, and incubated for 24 h at 37 °C. A control of pDNA cleaved with Hind III endonuclease was also used. […]
# [1] = tested on: BAX and BCL-2 proteins in A2780 cell line; experiment: BAX and BCL-2 protein expression by Western blot; format: cell-based, human; conditions: A2780, IC50, 48 h, normalized against DMSO control (=1)
# Procedure: The quantification of BAX and BCL-2 protein expression in the A2780 cell line incubated with different cobalt complexes in the A2780 cell line was determined by WB. For this, the A2780 cell line was cultivated in 25 cm^2 T-flasks at a density of 2 × 10^6 cells/mL and incubated for 24 h in the conditions described above. […] After 48 h incubation, the cells were washed and collected using cold PBS 1× and a cell scraper. The samples were centrifuged for 5 min at 700 × g and resuspended in fresh lysis buffer (150 mM NaCl, 5 mM ethylenediaminetetraacetic acid (EDTA), 50 mM Tris–HCl at pH 8.0, 2% (v/v) NP-40, 1× phosphatase inhibitors (PhosStop, Roche), 1× Protease inhibitors (complete ULTRA tablets, Mini, easypack, Roche), 1 mM phenylmethylsulfonylfuoride (PMSF) and 0.1% 1,4-dithiothreitol (v/v), DTT) and then storage at −80 °C for 2 h or until required. Cells were submitted to 5 ultrasound cycles and centrifuged at 1000 × g for 5 min. The total protein extract (supernatant) was quantified with Pierce Protein Assay Reagent (ThermoFisher Scientific) at 660 nm. […]
# The membranes were incubated with WesternBright ECL subtract (Advansta) for 5 min in the dark and the film was exposed to the membranes in a dark room. […] Protein quantification was made by densitometry with ImageJ software.
# [2] = tested on: Caspase 8 in A2780 cell line; experiment: Caspase 8 activity assay; format: cell-based, human; conditions: A2780, IC50, 48 h, normalized to DMSO
# Procedure: The A2780 cell line was seeded in 25 cm^2 T-flasks at a density of 2 × 10^6 cells/T-flasks. […] After that, cells were detached using cold PBS 1× and a cell scraper and centrifuged at 500 × g for 5 min. Then, we followed the instructions provided by the manufacturer of the Caspase-8 assay kit (Abcam). The data was obtained by measuring the absorbance of each sample at 400 nm and each value was normalized to the value of the DMSO sample.
SMILES,cytotoxic activity at 4 °C compared to 37 °C (A2780 cells),pDNA cleavage mechanism (plasmidic DNA (pUC18)),BAX/BCL-2 ratio [1],caspase 8 activity relative to control [2] [×]
"O=S(=O)([O-])C(F)(F)F.O=S(=O)([O-])C(F)(F)F.[Co+3].c1cc[cH-]c1.c1ccc(P(c2ccccc2)c2ccccc2)cc1.c1cnc2c(c1)ccc1cccnc12 [Complex 3, [Co(η^5-C5H5)(PPh3)(phen)][(CF3SO3)2]]",significantly lose some of their cytotoxic activity at 4 °C,cleave pDNA through singlet oxygen,2.8,–
"Cc1ccnc(-c2cc(C)ccn2)c1.O=S(=O)([O-])C(F)(F)F.O=S(=O)([O-])C(F)(F)F.[Co+3].c1cc[cH-]c1.c1ccc(P(c2ccccc2)c2ccccc2)cc1 [Complex 2, [Co(η^5-C5H5)(PPh3)(Me2bipy)][(CF3SO3)2]]",significantly lose some of their cytotoxic activity at 4 °C,cleave pDNA through singlet oxygen,–,2
"Nc1cc2cccnc2c2ncccc12.O=S(=O)([O-])C(F)(F)F.O=S(=O)([O-])C(F)(F)F.[Co+3].c1cc[cH-]c1.c1ccc(P(c2ccccc2)c2ccccc2)cc1 [Complex 4, [CoCp(PPh3)(NH2phen)][(CF3SO3)2]]",–,–,< 1,1.6
